The results in this text go back to PubChem BioAssay (NCI).

Molecules are shown by their SMILES.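 In this assay, cells in 96-well plates receive the compound at five concentrations for 48 hours. Endpoints are linearly interpolated between the surrounding concentrations. TGI marks complete inhibition of growth.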

Some test systems named below: 786-0 renal; ACHN renal; HCC-2998 colon; HCT-116 colon; HS 578T breast; K-562 leukemia; KM12 colon; MALME-3M melanoma; MCF7 breast; MDA-MB-231 breast; NCI-H23 lung; OVCAR-8 ovarian; PC-3 prostate; RXF 393 renal; SF-539 CNS; SK-MEL-2 melanoma; SK-OV-3 ovarian; UACC-62 melanoma; M14 melanoma; U251 CNS.
Assay in all cases: inhibition of tumour cell growth, NCI panel, 48 h

For `CN(C)CCCNC(=O)c1c(O)c2ccccc2[nH]c1=O`, the TGI with 786-0 renal, in the assay with ACHN renal, with HCC-2998 colon, in the assay on HCT-116 colon, with HS 578T breast and with K-562 leukemia was more than 100 µM each time. Besides, the TGI with KM12 colon, with MALME-3M melanoma, in the assay on MCF7 breast, in the assay with MDA-MB-231 breast, in the assay with NCI-H23 lung and with OVCAR-8 ovarian was more than 100 µM throughout. Besides, the TGI with PC-3 prostate, with RXF 393 renal, with SF-539 CNS, in the assay with SK-MEL-2 melanoma, with SK-OV-3 ovarian and in the assay with UACC-62 melanoma was more than 100 µM throughout.

In the case of `CCN1CCC(O)(c2ccc(Oc3ccccc3)cc2)C(C(=O)c2ccc(Oc3ccccc3)cc2)C1` (stereo unspecified), the TGI in the assay with 786-0 renal was 18.7 µM; in the assay on ACHN renal, 29.8 µM; in the assay on HCC-2998 colon, 19.6 µM; in the assay with HCT-116 colon it was 21.2 µM; in the assay on HS 578T breast, 78.1 µM; in the assay on K-562 leukemia, more than 100 µM. For the same compound, the TGI was 18.9 µM in the assay on KM12 colon; 26.3 µM in the assay with M14 melanoma; 34.6 µM with MALME-3M melanoma; 19.5 µM in the assay on MCF7 breast; 30.2 µM in the assay on MDA-MB-231 breast; 27.7 µM in the assay with NCI-H23 lung. In addition, the TGI in the assay with OVCAR-8 ovarian was 38.6 µM; in the assay with PC-3 prostate, 27.1 µM; in the assay on RXF 393 renal, 53.4 µM; in the assay on SF-539 CNS, 23.4 µM; in the assay on SK-MEL-2 melanoma, 30.1 µM; in the assay with U251 CNS, 24.2 µM. The TGI with UACC-62 melanoma amounted to 25.9 µM.

For `CCOC(=O)c1nnsc1NC(=O)Nc1ccc(Cc2ccc(NC(=O)Nc3snnc3C(=O)OCC)cc2)cc1`, the TGI was 33.9 µM with 786-0 renal; more than 100 µM in the assay with ACHN renal; more than 100 µM in the assay with HCC-2998 colon; more than 100 µM in the assay with HCT-116 colon; more than 100 µM in the assay on HS 578T breast; more than 100 µM with K-562 leukemia. The TGI in the assay with KM12 colon is more than 100 µM; with M14 melanoma, more than 100 µM; in the assay on MALME-3M melanoma it was more than 100 µM; in the assay with MCF7 breast it was more than 100 µM; with MDA-MB-231 breast, 95.6 µM; in the assay on NCI-H23 lung, more than 100 µM. The TGI in the assay on OVCAR-8 ovarian is 76.6 µM; in the assay on PC-3 prostate, more than 100 µM; in the assay with RXF 393 renal, 70.5 µM; in the assay with SK-MEL-2 melanoma, more than 100 µM; with SK-OV-3 ovarian, 54.8 µM; with U251 CNS it was more than 100 µM. In the assay on UACC-62 melanoma, this compound showed a TGI of more than 100 µM.

Consider `Cc1ccc(C2=Nn3c(nc4sc(C)c(C)c4c3=O)SC2)cc1`, for which the TGI with 786-0 renal, in the assay on ACHN renal, in the assay on HCC-2998 colon, in the assay on HCT-116 colon, with HS 578T breast and with K-562 leukemia was more than 100 µM each time. The TGI in the assay with KM12 colon, in the assay with MALME-3M melanoma, with MCF7 breast, in the assay with MDA-MB-231 breast, in the assay on NCI-H23 lung and with OVCAR-8 ovarian was more than 100 µM throughout. Further, the TGI with PC-3 prostate, in the assay with RXF 393 renal, in the assay on SF-539 CNS, in the assay on SK-OV-3 ovarian, in the assay on U251 CNS and in the assay with UACC-62 melanoma was more than 100 µM in each case.

As to `CC(Cc1ccccc1)Nc1ncnc2c1ncn2C1OC(CO)CC1O` (stereo unspecified), the TGI with 786-0 renal, with ACHN renal, in the assay on HCC-2998 colon, with HCT-116 colon, with HS 578T breast and in the assay on K-562 leukemia was more than 100 µM throughout. The TGI with KM12 colon, in the assay with M14 melanoma, in the assay with MALME-3M melanoma, with MCF7 breast, in the assay with MDA-MB-231 breast and in the assay on NCI-H23 lung was more than 100 µM throughout. Moreover, the TGI in the assay with OVCAR-8 ovarian is more than 100 µM; in the assay on PC-3 prostate, more than 100 µM; in the assay on RXF 393 renal, more than 100 µM; in the assay with SK-MEL-2 melanoma, more than 100 µM; in the assay on SK-OV-3 ovarian, 13.7 µM; in the assay with U251 CNS it was more than 100 µM. Further, the TGI in the assay with UACC-62 melanoma was more than 100 µM.

With `OC1c2ccccc2CC12Cc1ccccc1C2` (stereo unspecified), the TGI in the assay on 786-0 renal, with ACHN renal, with HCC-2998 colon, in the assay with HCT-116 colon, in the assay on HS 578T breast and in the assay with K-562 leukemia was more than 100 µM each time. Also, the TGI in the assay with KM12 colon, in the assay on M14 melanoma, in the assay on MALME-3M melanoma, in the assay with MCF7 breast, in the assay with MDA-MB-231 breast and in the assay on NCI-H23 lung was more than 100 µM in each case. Also, the TGI in the assay on OVCAR-8 ovarian, in the assay with PC-3 prostate, with RXF 393 renal, in the assay with SF-539 CNS, in the assay with SK-MEL-2 melanoma and in the assay on SK-OV-3 ovarian was more than 100 µM each time. In the assay with U251 CNS, the TGI was more than 100 µM.

With `Fc1ccc(Oc2nc3ccc(C(F)(F)F)cc3nc2-c2ccccc2)cc1`, the TGI is more than 100 µM in the assay with 786-0 renal; more than 100 µM in the assay with ACHN renal; 35.5 µM in the assay on HCC-2998 colon; more than 100 µM with HCT-116 colon; 99.5 µM in the assay on HS 578T breast; more than 10 µM with K-562 leukemia. In addition, the TGI with KM12 colon, in the assay with M14 melanoma, in the assay with MALME-3M melanoma, in the assay on MCF7 breast, in the assay with MDA-MB-231 breast and in the assay with NCI-H23 lung was more than 100 µM each time. Besides, the TGI in the assay on OVCAR-8 ovarian, in the assay with PC-3 prostate, in the assay on RXF 393 renal, in the assay on SF-539 CNS, in the assay on SK-MEL-2 melanoma and with SK-OV-3 ovarian was more than 100 µM in each case. The same compound yielded a TGI in the assay on UACC-62 melanoma of more than 100 µM.
